The results in this text go back to US11344510B2, “Arylcyclohexylamine derivatives and their use in the treatment of psychiatric disorders” (Gilgamesh Pharmaceuticals, Inc., priority 2019, dated 2022).

One data set has as its target T1, NET (Homo sapiens, UniProt P23975).
T1 construct: expressed in transfected cells; host or cells: HEK293
Put plainly: NET radioligand binding with [3H]nisoxetine. As for the experimental part:
Radioligand Binding. Affinity of the test compounds for SERT, NET, and DAT was determined in radioligand binding experiments with [^3H]imipramine, [^3]nisoxetine, and [^3H]WIN35,428, respectively, by WuXi AppTec (Hong Kong) Limited, under the conditions described in Table 15.

Data set [1] is described as follows: RLM stability (High Activity). It counts as in vitro ADME, Sprague Dawley rats. The following applies: for half-life at 1 μM / microsomal CLint at 1 μM: male, Sprague Dawley, rat, liver microsomes, pH 7.4, Condition 2 (High Activity), 1.0 mg protein/mL. As to the method: RLM Stability (High Activity). Pooled RLM from male Sprague Dawley rats (XenoTech R1000, lot #1910100) were used. Microsomal incubations were carried out in 96-well plates in 5 aliquots of 40 μL each (one for each time point). Liver microsomal incubation medium consisted of PBS (100 mM, pH 7.4), MgCl2 (3.3 mM), NADPH (3 mM), glucose-6-phosphate (5.3 mM), and glucose-6-phosphate dehydrogenase (0.67 units/mL), with 1.0 mg of liver microsomal protein per mL. Control incubations were performed by replacing the NADPH-cofactor system with PBS. Test compounds (1 μM, final solvent concentration 1.6%) were incubated with microsomes at 37° C., shaking at 100 rpm. Incubations were performed in duplicate. Five time points over 60 minutes were analyzed. The reactions were stopped by adding 9 volumes of 90% acetonitrile-water to incubation aliquots, followed by protein sedimentation by centrifugation at 5500 rpm for 3 minutes. Supernatants were analyzed for parent compound remaining using a fit-for-purpose liquid chromatography-tandem mass spectrometry (LC-MS/MS) method, with authentic samples of each analyte used for identity confirmation.
Data Analysis. The elimination constant (kel), half-life (t1/2) and intrinsic clearance (Clint) were determined in a plot of […] versus time, using linear regression analysis.

Data set [2] in a line: Exposure after intraperitoneal administration in mice. Type of data set: in vivo. As to conditions: CD-1 mice; for AUC(0-inf) / Cmax: male, mouse; for Cmax and AUC compared to ketamine at 10 mg/kg: plasma and brain. As for the experimental part:
Animals. Male CD-1 mice were used in these studies Animals were randomly assigned to treatment groups and were fasted for 4 h before dosing.
Drugs. Test compounds (HCl salts) were dissolved in de-ionized water and administered intraperitoneally (ip) at the indicated doses (calculated based on freebase) and at a volume of 5 mL/kg body weight. Compounds were tested as the racemates (indicated by “rac” nomenclature) or pure enantiomers (indicated by “R” or “S” nomenclature), as indicated.
Pharmacokinetics. Blood samples were collected under 2,2,2-tribromoethanol anesthesia (150 mg/kg, ip) from the orbital sinus at 0.083, 0.25, 0.5, 1, and 2 h (ketamine, 4 animals per time point) or 0.083, 0.25, 0.5, 1, 2, 4, and 8 h (14R and 14S, 4 animals per time point) into microcontainers containing K2EDTA Immediately after collection of blood, mice were euthanized by cervical dislocation and brain samples were collected at the same time points. All samples were immediately processed, flash-frozen, and stored at −70° C. until subsequent analysis. Plasma samples were separated by centrifugation of whole blood and aliquots (50 μL) were mixed with 200 μL, of internal standard solution (400 ng/mL in 1:1 v/v CH3CN:MeOH). After mixing by pipetting and centrifuging for 4 min at 6000 rpm, 0.5 μL of each supernatant was analyzed for drug using a fit-for-purpose liquid chromatography-tandem mass spectrometry (LC-MS/MS) method, with authentic samples of each analyte used for calibration and identification. Brain samples (weight 200 mg±1 mg) were dispersed in 800 μL of internal standard solution (400 ng/mL in 4:1 v/v MeOH:water) using zirconium oxide beads (115 mg±5 mg) in The Bullet Blender® homogenizer for 30 s at speed 8. After homogenization, the samples were centrifuged for 4 min at 14,000 rpm and 0.5 μL of each supernatant was analyzed for drug using a fit-for-purpose LC-MS/MS method, with authentic samples of each analyte used for calibration and identification.
Data Analysis. The drug concentrations of samples below the lower limit of quantitation (LLOQ) were designated as zero. Pharmacokinetic data analysis was performed using noncompartmental, bolus injection or extravascular input analysis models in WinNonlin 5.2 (PharSight). Data points below LLOQ were presented as missing to improve validity of t112 calculations.

A short description of data set [3]: MLM stability (Low Activity). Type of data set: in vitro ADME, CD-1 mice. As to conditions: male, CD-1, mouse, liver microsomes, pH 7.4, Condition 1 (Low Activity), 0.50 mg protein/mL. An outline of the steps: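 Pooled male CD-1 mouse liver microsomes (0.50 mg/mL) with 1 μM compound and 1 mM NADPH in 100 mM PBS pH 7.4 with 1 mM MgCl2, 37 °C, six time points over 60 min. Parent remaining by LC-MS/MS; kel, t1/2 and Clint from linear regression of ln(AUC) versus time.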

Structures are written as SMILES. A value given as a limit tells only on which side of the number the result lay.

T1 sequence (P23975 whole entry, species assumed): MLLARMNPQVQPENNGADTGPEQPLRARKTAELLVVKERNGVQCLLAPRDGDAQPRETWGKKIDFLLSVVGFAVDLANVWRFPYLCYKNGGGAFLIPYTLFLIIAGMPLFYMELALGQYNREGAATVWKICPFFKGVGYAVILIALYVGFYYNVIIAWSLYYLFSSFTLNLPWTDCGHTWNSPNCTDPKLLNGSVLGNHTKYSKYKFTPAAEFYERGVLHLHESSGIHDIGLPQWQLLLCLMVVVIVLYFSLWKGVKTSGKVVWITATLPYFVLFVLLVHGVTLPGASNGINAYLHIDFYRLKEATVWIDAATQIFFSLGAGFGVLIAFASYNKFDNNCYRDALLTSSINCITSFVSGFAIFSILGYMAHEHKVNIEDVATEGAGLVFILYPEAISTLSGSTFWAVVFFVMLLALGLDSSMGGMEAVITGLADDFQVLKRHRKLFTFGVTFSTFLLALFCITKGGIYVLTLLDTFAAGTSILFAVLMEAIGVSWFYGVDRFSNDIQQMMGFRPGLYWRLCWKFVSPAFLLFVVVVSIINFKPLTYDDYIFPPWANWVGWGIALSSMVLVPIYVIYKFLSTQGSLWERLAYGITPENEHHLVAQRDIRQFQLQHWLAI

`O=C1CCCCC1(c1ccccc1)N1CCCC1` (racemic) [Compound 27rac, 2-phenyl-2-(pyrrolidin-1-yl)cyclohexan-1-one] gave a Ki on NET of 11.5 µM.

In data set [1], `COCCNC1(c2ccccc2)CCCCC1=O` (racemic) [Compound 29rac, 2-((2-methoxyethyl)amino)-2-phenylcyclohexan-1-one] showed a half-life at 1 μM of 17.6 min and a microsomal CLint at 1 μM of 39 µL/min/mg.

In data set [1], `CNC1(c2ccccc2Cl)CCCCC1=O` (racemic) [rac-ketamine, racemic ketamine, reference compound] registered a half-life at 1 μM of 4.6 min and a microsomal CLint at 1 μM of 151 µL/min/mg. In data set [2] (brain, 10 mg/kg ip), the AUC(0-inf) is 725 ng·h/mL and the peak concentration (Cmax) came out at 2250 ng/mL. In data set [2] (plasma, 10 mg/kg ip), the AUC(0-inf) was 382 ng·h/mL and the peak level (Cmax) was 822 ng/mL.

For the molecule `N[C@@]1(c2ccccc2)CCCCC1=O` [Compound 11R, (R)-2-amino-2-phenyl-cyclohexan-1-one], the half-life at 1 μM in data set [3] was greater than 145 min; in data set [1], 103 min. The figures for the microsomal CLint at 1 μM in data set [3] and in data set [1] were less than 9.6 µL/min/mg and 7 µL/min/mg, respectively.

For the molecule `N[C@]1(c2ccccc2)CCCCC1=O` [Compound 11S, (S)-2-amino-2-phenyl-cyclohexan-1-one], the half-life at 1 μM is greater than 145 min in data set [3] and 109 min in data set [1]. Further, the values for the microsomal CLint at 1 μM in data set [3] and in data set [1] were less than 9.6 µL/min/mg and 6 µL/min/mg, respectively.

In data set [1], `CN[C@@]1(c2ccccc2)CCCCC1=O` [Compound 14R, (R)-2-(methylamino)-2-phenylcyclohexan-1-one] came in with a half-life at 1 μM of 18.2 min and a microsomal CLint at 1 μM of 38 µL/min/mg. Further, the “Cmax and AUC compared to ketamine at 10 mg/kg” value in data set [2] (3.16 mg/kg ip) is reported as “comparable to, or higher than”. In data set [2] (brain, 3.16 mg/kg ip), this molecule had an AUC(0-inf) of 2530 ng·h/mL and a Cmax of 3320 ng/mL. In data set [2] (plasma, 3.16 mg/kg ip), this molecule showed an AUC(0-inf) of 703 ng·h/mL and a Cmax of 1010 ng/mL. Moreover, the “exposure (AUC) to 14R relative to 14S” value in data set [2] (same dose, 3.16 mg/kg ip) is given as “roughly 2 fold”.

As for `CN[C@]1(c2ccccc2)CCCCC1=O` [Compound 14S, (S)-2-(methylamino)-2-phenylcyclohexan-1-one], in data set [1], the half-life at 1 μM worked out at 31.6 min and the microsomal CLint at 1 μM was 22 µL/min/mg. In addition, in data set [2] (3.16 mg/kg ip), the “Cmax and AUC compared to ketamine at 10 mg/kg” value was “comparable to, or higher than”. In addition, in data set [2] (brain, 3.16 mg/kg ip), the AUC(0-inf) was 1220 ng·h/mL and the highest level (Cmax) was 3370 ng/mL. In data set [2] (plasma, 3.16 mg/kg ip), this molecule gave an AUC(0-inf) of 385 ng·h/mL and a Cmax of 875 ng/mL.

As to `CN[C@]1(c2cccc(F)c2)CCCCC1=O` [Compound 19S, (5)-2-(3-fluorophenyl)-2-(methylamino)cyclohexan-1-one], in data set [1], the half-life at 1 μM was found to be 18.8 min and the microsomal CLint at 1 μM stood at 37 µL/min/mg.

Turning to `O=C1CCCC[C@]1(c1ccccc1)N1CCC1` [Compound 84R, (R)-2-(azetidin-1-yl)-2-phenyl-cyclohexan-1-one], the inhibition constant Ki on NET was determined as 77.8 µM. Further, in data set [1], the half-life at 1 μM was 21.8 min and the microsomal CLint at 1 μM was 32 µL/min/mg.

`O=C1CCCC[C@@]1(c1ccccc1)N1CCC1` [Compound 84S, (S)-2-(azetidin-1-yl)-2-phenyl-cyclohexan-1-one] yielded an inhibition constant (Ki) on NET of 53.8 µM. In data set [1], this molecule registered a half-life at 1 μM of 30.3 min and a microsomal CLint at 1 μM of 23 µL/min/mg.

On to `[2H]C([2H])([2H])N[C@@]1(c2ccccc2)CCCCC1=O` [Compound 88R, (R)-2-((methyl-d3)amino)-2-phenylcyclohexan-1-one], for which the “metabolic stability compared to non-deuterated counterparts 14R and 14S” value in data set [1] (High Activity) was “increased metabolic stability”. Also, in data set [1], the half-life at 1 μM is 39.6 min and the microsomal CLint at 1 μM was found to be 18 µL/min/mg.

In data set [3], `Cc1ccccc1[C@]1(N)CCCCC1=O` [Compound 114R, (R)-2-amino-2-(o-tolyl)cyclohexan-1-one] returned a half-life at 1 μM of 43.7 min and a microsomal CLint at 1 μM of 31.7 µL/min/mg.

As to `Cc1ccccc1[C@@]1(N)CCCCC1=O` [Compound 114S, (S)-2-amino-2-(o-tolyl)cyclohexan-1-one], in data set [3], the half-life at 1 μM came out at 80.9 min and the microsomal CLint at 1 μM stood at 17.1 µL/min/mg.
